What was measured:
Format in all cases: physicochemical
[1] = Fluorescence excitation and emission spectra in DMF; settings: for Stokes shift ΔStokes: difference between excitation and emission maxima
Description: Fluorescence behaviors of the AzaPc1/Pc2-Pc5 compounds were evaluated in DMF solutions. FIGS. 12A-12E show absorption, fluorescence emission and excitation spectra of these complexes.
Excitation maxima appear at 629 nm for AzaPc1, 679 nm for Pc2, 678 nm for Pc3, 682 nm for Pc4 and 700 nm for Pc5 in DMF. Emission maxima appear at 639 nm, 683 nm, 686 nm, 688 nm and 707 nm for AzaPc1/Pc2-Pc5, respectively. The observed Stokes' shifts, which are differences between the excitation and emission wavelength maxima, are between 4 and 10 nm for all of the zinc (II) complexes (Table 1). The observed Stokes' shifts are consistent with those of typical zinc (II) phthalocyanine complexes.

[2] = Photodegradation under light irradiation; settings: DMF
Excerpt: Photodegradation is an indicator of the stability of compounds, which is useful for determining the photosensitizing ability of the compounds as PDT agents. The stability of photosensitizers under light irradiation is important for photochemical processes such as PDT because photosensitizers need to survive for a specific period in the body. Photodegradation degree can be detected by photodegradation quantum yield (Φd), which depends on structure, light intensity, solvent used and concentration of a compound of interest. Photodegradation of a compound under light irradiation can be used to study the compound stability, which is important for those molecules intended for the application in photocatalytic reactions. Collapse of absorption spectra without any distortion of the shape of the absorption spectra confirms photo-degradation not associated with photo-transformation into different forms of Pcs absorbing light in the visible region. The spectral changes for all of the exemplary AzaPc1/Pc2-Pc5 compounds were determined in response to light irradiation, and photodegradation occurred without phototransformation, because only Q and B bands were decreased, i.e., no new band formation was observed.
Pc derivatives and their macrocyclic analogs generate singlet oxygen when they are illuminated by an appropriate light. The formed […] via photooxidation reactions. Generally, photodegradation of Pc/Pc-analog compounds by light irradiation results in formation of the phthalamide residue. The photodegradation behavior of AzaPc1/Pc2-Pc5 in DMF were determined. The Φd values of these novel systems are on the order of 10^−4 (Table 2), consistent with values for other Pcs containing different metals and substituents.

[3] = Fluorescence quantum yield determination; settings: DMF per text (Table 2 title prints DMSO)
Excerpt: Fluorescence emission occurs when an orbital electron of a photosensitizer relaxes from its singlet state to ground state upon emitting a photon of light. Fluorescence quantum yield (ΦF) indicates a measure of the efficiency of the fluorescence process and is defined as the ratio of the number of photons emitted to the number of photons absorbed. The fluorescence quantum yields (ΦF) may be determined using established methods described in existing literature. The ΦF values of the present AzaPc1/Pc2-Pc5 compounds are typical for those phthalocyanine compounds (Table 2). Particularly, ΦF values were measured to be 0.11 for AzaPc1, 0.16 for Pc2, 0.17 for Pc3, 0.14 for Pc4 and 0.11 for Pc5 in the exemplary DMF solvent system.

[4] = Ground state electronic absorption spectra (UV-Vis) in DMF; settings: for log ε at λmax / λmax (Q band absorption): in DMF
Description: Electronic absorption, which is measured by UV-Vis spectroscopy, is one of the best spectroscopic techniques for determination of Pc formation and characterization of Pc compounds. Generally, two absorption bands are observed for Pc structures in their electronic absorption spectra. One band, known as Q, is observed at around 600-750 nm due to the π→π* transitions from the highest occupied molecular orbital (HOMO) to the lowest unoccupied molecular orbital (LUMO) of the Pc ring, while the other band, known as B, or the Soret band, is observed at around 300-450 nm due to transitions from deeper it levels to the LUMO. The ground state electronic absorption spectra of the studied novel Pcs were measured in DMF solution.
The ground state electronic absorption spectra show monomeric behavior evidenced by single (narrow) Q band absorptions, which is typical for metallated complexes. The Q bands appear around 680 nm for the symmetric Pc2 and both asymmetric Pc3 and Pc4 in DMF (Table 1). On the other hand, the non-peripheral Pc5 show approximately 20 nm red-shifted Q band absorption at 700 nm when compared to the peripheral counterparts in the solvent (Table 1). The observed red spectral shifts are typical for Pc molecules with substituents at the non-peripheral positions and are presumably due to linear combinations of the atomic orbitals (LCAO) coefficients at the non-peripheral positions of the HOMO being greater than those at the peripheral positions. As a result, the HOMO level is destabilized more at the non-peripheral site than it is at the peripheral one. Essentially, the energy gap (ΔE) between the HOMO and LUMO becomes smaller, resulting in a bathochromic shift. The 49 nm blue shift for AzaPc1 is caused by the additional nitrogen atoms instead of CH groups in the Pc macrocyclic system. The B-bands are broad due to the superimposition of the B1 and B2 bands in the 340 to 380 nm region.

[5] = Singlet oxygen quantum yield, chemical method with DPBF quencher; settings: DMF, 414 nm
Excerpt: Transferring of energy from a triplet state of a photosensitizer such as Pc to ground state molecular oxygen leads to the production of singlet oxygen. There is a necessity of high efficiency of energy transfer between the excited triplet state of photosensitizer and the ground state of oxygen in order to generate large amounts of singlet oxygen, essential for PDT applications. The singlet oxygen quantum yield (ΦA) values give the amount of the generated singlet oxygen. This value is an indication of the potential provided by the compounds as photosensitizers in applications where singlet oxygen is required. The ΦΔ values for AzaPc1/Pc2-Pc5 were determined in DMF by a chemical method using 1,3-diphenylisobenzofuran (DPBF) as a quencher. The disappearance of DPBF at 414 nm was monitored using UV-Vis spectrophotometer. Many factors can be responsible for the magnitude of the determined singlet oxygen quantum yield, including triplet excited state energy, ability of substituents and solvents to quench the singlet oxygen, the triplet excited state lifetime and the efficiency of the energy transfer between the triplet excited state and the ground state of oxygen.

[6] = Fluorescence lifetime by time correlated single photon counting (TCSPC); settings: DMF
Description: Fluorescence lifetime (τF) refers to the average time that a molecule stays in its excited state before returning to its ground state by photon emission. The fluorescence lifetime values of the AzaPc1/Pc2-Pc5 compounds were determined by using time correlated single photon counting (TCSPC). All time-resolved fluorescence studies were carried out for the exemplary compounds in solution in DMF, and the fluorescence decays of the macrocycles were concluded in mono exponential curves.

[7] = Aggregation studies (UV-Vis) in organic solvents and at different concentrations
Excerpt: Macrocycle Pcs generate high aggregation tendencies due to the intermolecular interactions that take place between their 18 π-electrons. Accordingly, this self-association process would minimize their solubility in most solvent systems and therefore affect their spectroscopic, photophysical, photochemical, and electrochemical properties. Generally, aggregation is highly dependent on the concentration, temperature, nature of the substituents and/or their position and orientation with respect to the Pc skeleton, nature of the solvent media, and the central metal ion in the Pc-cores.
Pc molecules can form two types of aggregates in dissolved systems—H-type and J-type-depending on the nature, position and/or orientation of the substituents. In general, Pcs form H-type aggregates in solution, whereas J-type aggregates occur rarely. The formation of J-type aggregates among Pc structures is significant, since J-type aggregation is photoactive, while H-type aggregation is not.
The aggregation properties for the AzaPc1/Pc2-Pc5 compounds were determined in different organic solvents, namely, DCM, chloroform, DMF, DMSO, ethanol, methanol, THF and toluene.
Aggregation behaviors for the AzaPc1/Pc2-Pc5 compounds were also investigated in DMF at different concentrations in order to establish a suitable concentration for further photophysical/photochemical studies.

| λEm (emission maximum) [1] [nm] | λEx (excitation maximum) [1] [nm] | Stokes shift ΔStokes [1] [nm] | Photodegradation quantum yield Φd (×10^−4) [2] | Fluorescence quantum yield ΦF [3] | log ε at λmax [4] | λmax (Q band absorption) [4] [nm] | Singlet oxygen quantum yield ΦΔ [5] | Fluorescence lifetime τF [6] [ns] | Blue shift of Q band absorption ([4]; DMF, aza analogue versus Pc macrocycle) [nm] | Aggregation in methanol [7] | Structure (SMILES) |
| --- | --- | --- | --- | --- | --- | --- | --- | --- | --- | --- | --- |
| 676 | 670 | 6 | 0.23 ×10^−4 | 0.17 | 5.37 | 670 | 0.56 | 1.03 | – | – | [Zn+2].c1ccc2c(c1)-c1nc-2nc2[n-]c(nc3nc([n-]c4nc(n1)-c1ccccc1-4)-c1ccccc1-3)c1ccccc21 [Std-ZnPc, zinc(II) phthalocyanine, reference compound] |
| 688 | 682 | 6 | 1.12 ×10^−4 | 0.14 | 5.21 | – | 0.57 | 3.37 | – | small H-type aggregates were detected | C#CCOCc1cc(C)cc(COCC#C)c1Oc1ccc2c(c1)C1=NC2=Nc2c3cc(Oc4c(COCC#C)cc(C)cc4COCC#C)ccc3c3[n]2[Zn][n]2c(c4ccc(Oc5c(COCC#C)cc(C)cc5COCC#C)cc4c2=NC2=NC(=N3)c3cc(Oc4c(COCC#C)cc(C)cc4COCC#C)ccc32)=N1 [Pc4] |

Second part, the molecule before the results:

| Structure (SMILES) | λEm (emission maximum) [1] [nm] | λEx (excitation maximum) [1] [nm] | Stokes shift ΔStokes [1] [nm] | Photodegradation quantum yield Φd (×10^−4) [2] | Fluorescence quantum yield ΦF [3] | log ε at λmax [4] | λmax (Q band absorption) [4] [nm] | Singlet oxygen quantum yield ΦΔ [5] | Fluorescence lifetime τF [6] [ns] | Blue shift of Q band absorption ([4]; DMF, aza analogue versus Pc macrocycle) [nm] | Aggregation in methanol [7] |
| --- | --- | --- | --- | --- | --- | --- | --- | --- | --- | --- | --- |
| C#CCOCc1cc(C)cc(COCC#C)c1Oc1cc2c(cc1Cl)C1=Nc3c4cc(Oc5c(COCC#C)cc(C)cc5COCC#C)c(Cl)cc4c4[n]3[Zn][n]3c(c5cc(Cl)c(Oc6c(COCC#C)cc(C)cc6COCC#C)cc5c3=NC3=NC(=N4)c4cc(Oc5c(COCC#C)cc(C)cc5COCC#C)c(Cl)cc43)=NC2=N1 [Pc3] | 686 | 678 | 8 | 1.40 ×10^−4 | 0.17 | 5.33 | – | 0.60 | 2.84 | – | – |
| C#CCOCc1cc(C)cc(COCC#C)c1Oc1nc2c(nc1Oc1c(COCC#C)cc(C)cc1COCC#C)C1=Nc3c4nc(Oc5c(COCC#C)cc(C)cc5COCC#C)c(Oc5c(COCC#C)cc(C)cc5COCC#C)nc4c4[n]3[Zn][n]3c(c5nc(Oc6c(COCC#C)cc(C)cc6COCC#C)c(Oc6c(COCC#C)cc(C)cc6COCC#C)nc5c3=NC3=NC(=N4)c4nc(Oc5c(COCC#C)cc(C)cc5COCC#C)c(Oc5c(COCC#C)cc(C)cc5COCC#C)nc43)=NC2=N1 [AzaPc1] | 639 | 629 | 10 | 4.30 ×10^−4 | 0.14 | 5.07 | 629 | 0.63 | 2.46 | 49 | – |
| C#CCOCc1cc(C)cc(COCC#C)c1Oc1cc2c(cc1Oc1c(COCC#C)cc(C)cc1COCC#C)C1=Nc3c4cc(Oc5c(COCC#C)cc(C)cc5COCC#C)c(Oc5c(COCC#C)cc(C)cc5COCC#C)cc4c4[n]3[Zn][n]3c(c5cc(Oc6c(COCC#C)cc(C)cc6COCC#C)c(Oc6c(COCC#C)cc(C)cc6COCC#C)cc5c3=NC3=NC(=N4)c4cc(Oc5c(COCC#C)cc(C)cc5COCC#C)c(Oc5c(COCC#C)cc(C)cc5COCC#C)cc43)=NC2=N1 [Pc2] | 683 | 679 | 4 | 1.58 ×10^−4 | 0.16 | 5.33 | – | 0.60 | 3.30 | – | – |

Source: US10723694B2, “Propargyl-functionalized macrocyclic compounds” (KUWAIT UNIVERSITY, priority 2018, dated 2020)
